Data on 67 compounds can be found in EP4803513A1, “SUBSTITUTED QUINAZOLINE COMPOUND, PREPARATION METHOD THEREFOR, PHARMACEUTICAL COMBINATION THEREOF, AND USE THEREOF” (Hongyun Biotech Co., Ltd., priority 2023, dated 2025).

pIC50: −log10 of the molar value. Some results are limits rather than exact numbers.

The assay relates to BRK-BaF3 cells. The assay can be described thus: Cell antiproliferative activity assay (CCK-8), BRK-BaF3. Type of assay: cell-based. Conditions: 72 h, CCK-8, 3 days incubation. The protocol:
The activity of compounds against BRK kinase can be evaluated by their inhibition of the growth of the BRK kinase-stably transfected BaF3 cell line (BRK-BaF3) and wild-type BaF3 cells (WT-BaF3). […] The larger the ratio of the half-maximal growth inhibitory concentration (IC50) of a compound between WT-BaF3 and BRK-BaF3 cells, the better the selectivity of the compound.
BRK-BaF3, WT-BaF3, WEHI cell line, and breast cancer cell line T47D were cultured using RPMI 1640 Basal medium or DMEM (Dulbecco's Modified Eagle Medium) (Shanghai Peiyuan Biotechnology, L220KJ), supplemented with 10% FBS (Gibco, REF 10099-141C) and 1% P/S (Shanghai Peiyuan Biotechnology, S110JV), in an incubator (Thermo 3020) at 37°C with 5% CO2. Cell viability was above 95%. Cells were passaged at a 3:1 ratio every 3-4 days. For WT-BaF3 cells, WEHI cells were first cultured, and their culture supernatant was filtered through a 0.22 µm filter. This supernatant was added at 10% to the regular culture medium to supplement IL-3 required for WT-BaF3 cell proliferation, which served as the culture medium for WT-BaF3. For testing, cells were first collected and counted, then prepared into a cell suspension at 100,000 cells/mL and plated at 100 µL per well. Drug concentrations started from 10 µM and were serially diluted 3:1. After incubation for 3 days, 20 µL of CCK-8 detection reagent (Targetmol C005) was added to each well. After incubation for 2-4 hours, OD450 was measured using a microplate reader (Varioskan LUX, Thermo Scientific). After subtracting the blank background, the curve was fitted and the IC50 was calculated using XLfit software.
As a reminder, the pIC50 is the negative decadic logarithm of the IC50, by convention in mol/L. A lower pIC50 goes with a large IC50. Regarding `Cc1c[nH]c(=O)cc1-c1cc(C(C)C)c2nc(Nc3cnn(C)c3C)ncc2c1` [III-3], the pIC50 is at least 7.70.
As for `Cc1nn(CCO)cc1Nc1ncc2cc(-c3cccnc3C(F)F)cc(C(C)C)c2n1` [I-23], the pIC50 was 7.00 to 7.70.
Consider `COc1nn(C)cc1Nc1ncc2cc(-c3cc(=O)[nH]cc3C)cc(C(C)C)c2n1` [III-6], for which the pIC50 was 7.00 to 7.70.
The result for `Cc1c[nH]c(=O)cc1-c1cc(C(C)C)c2nc(Nc3cnn(CC(C)(C)O)c3C)ncc2c1` [I-180] reads at least 7.70; that for `Cc1ccc(C#N)cc1-c1cc(C(C)C)c2nc(Nc3cn(C4CCN(C)CC4)nc3C)ncc2c1` [III-131], at least 7.70.
The compound `Cc1c[nH]c(=O)cc1-c1cc(C(C)C)c2nc(Nc3cnn(CCN(C)CC(C)(C)O)c3C)ncc2c1` [III-57] had a pIC50 of at least 7.70.
Consider `Cc1c[nH]c(=O)cc1-c1cc(C(C)C)c2nc(Nc3cn(C4CCN(C)CC4)nc3C(F)(F)F)ncc2c1` [III-27], for which the pIC50 was at least 7.70.
The result for `Cc1cccnc1-c1cc(C(C)C)c2nc(Nc3cn(C)nc3C)ncc2c1` [III-119] reads at least 7.70.
Compound `Cc1c[nH]c(=O)cc1-c1cc(C(C)C)c2nc(Nc3cn(CC(C)(C)O)nc3C)ncc2c1` [I-175] gave a pIC50 of at least 7.70.
Take `Cc1c[nH]c(=O)cc1-c1cc(C(C)C)c2nc(Nc3cn(CC(=O)N(C)C(C)C)nc3C)ncc2c1` [III-74]: the negative-log IC50 (pIC50) was 7.00 to 7.70.
As to `Cc1ccc(C#N)nc1-c1cc(C(C)C)c2nc(Nc3cn(CCO)nc3C)ncc2c1` [I-5], the pIC50 was at least 7.70.
The result for `Cc1cc2cn[nH]c2cc1-c1cc(C(C)C)c2nc(Nc3cn(CCO)nc3C)ncc2c1` [I-185] reads 7.00 to 7.70.
In turn, `Cc1c[nH]c(=O)cc1-c1cc(C2CC2)c2nc(Nc3cnn(C)c3C)ncc2c1` [III-81] gave a pIC50 of at least 7.70.
`COCCN(C)CCn1cc(Nc2ncc3cc(-c4cc(=O)[nH]cc4C)cc(C(C)C)c3n2)c(C)n1` [III-54] showed a negative logarithm of the IC50 (pIC50) of at least 7.70.
Take `Cc1nn(CCO)cc1Nc1ncc2cc(-c3cc(F)ncc3F)cc(C(C)C)c2n1` [I-16]: the pIC50 is at least 7.70.
Regarding `Cc1c[nH]c(=O)cc1-c1cc(C(C)C)c2nc(Nc3cn(C4CCN(C(C)C)CC4)nc3C)ncc2c1` [III-16], the pIC50 is at least 7.70.
In turn, `CCN(C)CCn1ncc(Nc2ncc3cc(-c4cc(=O)[nH]cc4C)cc(C(C)C)c3n2)c1C` [III-52] showed a negative logarithm of the IC50 (pIC50) of at least 7.70.
In the case of `COCCN(C)CCn1ncc(Nc2ncc3cc(-c4cc(=O)[nH]cc4C)cc(C(C)C)c3n2)c1C` [III-55], the negative logarithm of the IC50 (pIC50) is at least 7.70.
As for `Cc1nn(CCO)cc1Nc1ncc2cc(-c3cccc4c3OCO4)cc(C3CC3)c2n1` [I-166], the figure is 7.00 to 7.70; as for `Cc1nn(CCO)cc1Nc1ncc2cc(-c3cc(F)ccc3F)cc(C(C)C)c2n1` [I-159], at least 7.70.
For `Cc1ccc(F)cc1-c1cc(C(C)C)c2nc(Nc3cnn(CCO)c3C)ncc2c1` [I-171], the pIC50 was at least 7.70.
The result for `Cc1c[nH]c(=O)cc1-c1cc(C(C)C)c2nc(Nc3cn(CCN4CCOC[C@H]4C)nc3C)ncc2c1` [III-61] reads 7.00 to 7.70.
Consider `Cc1c[nH]c(=O)cc1-c1cc(C(C)C)c2nc(Nc3cnn(C4CCCN(C)CC4)c3C)ncc2c1` (stereo not shown) [III-36], for which the pIC50 was at least 7.70.
Consider `Cc1c(Nc2ncc3cc(-c4cnccc4F)cc(C(C)C)c3n2)cnn1CCO` [I-58], for which the pIC50 is 7.00 to 7.70.
The compound `Cc1c[nH]c(=O)cc1-c1cc(C(C)C)c2nc(Nc3cn(CCN(C)CC(C)(C)O)nc3C)ncc2c1` [III-56] had a pIC50 of at least 7.70.
With `Cc1nn(CCO)cc1Nc1ncc2cc(-c3cncc(Br)c3Cl)cc(C(C)C)c2n1` [I-37], the negative-log IC50 (pIC50) was at least 7.70.
As for `COc1nn(C2CCN(C)CC2)cc1Nc1ncc2cc(-c3cc(=O)[nH]cc3C)cc(C(C)C)c2n1` [III-31], the figure is at least 7.70; as for `Cc1nn(CCO)cc1Nc1ncc2cc(-c3cccc(F)c3F)cc(C(C)C)c2n1` [I-156], at least 7.70.
As for `Cc1nn(CCO)cc1Nc1ncc2cc(-c3ccnc(F)c3F)cc(C(C)C)c2n1` [I-15], the figure is 7.00 to 7.70; as for `Cc1ccc2[nH]ncc2c1-c1cc(C(C)C)c2nc(Nc3cn(CCO)nc3C)ncc2c1` [I-182], at least 7.70.
Take `CCn1cc(Nc2ncc3cc(-c4cc(=O)[nH]cc4C)cc(C(C)C)c3n2)c(C)n1` [III-12]: the pIC50 was at least 7.70.
Take `Cc1c[nH]c(=O)cc1-c1cc(C(C)C)c2nc(Nc3cnn(CCN4CCCC4)c3C)ncc2c1` [III-65]: the pIC50 is at least 7.70.
Compound `Cc1ccncc1-c1cc(C(C)C)c2nc(Nc3cn(C4CCN(C)CC4)nc3C)ncc2c1` [III-129] gave a pIC50 of at least 7.70.
As for `Cc1ccc(F)cc1-c1cc(C(C)C)c2nc(Nc3cn(CCO)nc3C)ncc2c1` [I-161], the pIC50 is at least 7.70.
As to `Cc1c[nH]c(=O)cc1-c1cc(C(C)C)c2nc(Nc3cnn(CCN4CCOC[C@H]4C)c3C)ncc2c1` [III-62], the negative logarithm of the IC50 (pIC50) is at least 7.70.
Turning to `Cc1c[nH]c(=O)cc1-c1cc(C(C)C)c2nc(Nc3cn(C4CCN(C5COC5)CC4)nc3C)ncc2c1` [III-18], the pIC50 is 7.00 to 7.70.
Regarding `Cc1nn(CCO)cc1Nc1ncc2cc(-c3cncc4ccccc34)cc(C(C)C)c2n1` [I-184], the negative-log IC50 (pIC50) is at least 7.70.
In the case of `Cc1c[nH]c(=O)cc1-c1cc(C(C)C)c2nc(Nc3cnn(CCN4CCOC[C@@H]4C)c3C)ncc2c1` [III-60], the pIC50 is at least 7.70.
`CCc1nn(C2CCN(C)CC2)cc1Nc1ncc2cc(-c3cc(=O)[nH]cc3C)cc(C(C)C)c2n1` [III-29] showed a negative-log IC50 (pIC50) of at least 7.70.
As for `Cc1c(F)cncc1-c1cc(C(C)C)c2nc(Nc3cnn(CCO)c3C)ncc2c1` [I-67], the figure is at least 7.70.
As to `Cc1c[nH]c(=O)cc1-c1cc(C(C)C)c2nc(Nc3cn(CC(=O)NC4CCC4)nc3C)ncc2c1` [III-72], the pIC50 is 7.00 to 7.70.
For the compound `Cc1c[nH]c(=O)cc1-c1cc(C(C)C)c2nc(Nc3cnn(CCO)c3)ncc2c1` [I-174], the pIC50 was at least 7.70.
The result for `Cc1c[nH]c(=O)cc1-c1cc(C(C)C)c2nc(Nc3cn(C4CCN(C)CC4)nc3C)ncc2c1` [III-13] reads at least 7.70; that for `Cc1c[nH]c(=O)cc1-c1cc(C(C)C)c2nc(Nc3cn(C(F)F)nc3C)ncc2c1` [III-7], at least 7.70.
On to `Cc1c[nH]c(=O)cc1-c1cc(C(C)C)c2nc(Nc3cn(CCN4CCCC4)nc3C)ncc2c1` [III-64], for which the pIC50 was at least 7.70.
For the compound `Cc1c[nH]c(=O)cc1-c1cc(C(C)C)c2nc(Nc3cn(C(C)(C)CO)nc3C)ncc2c1` [I-173], the pIC50 is 7.00 to 7.70.
The compound `Cc1ccc2[nH]ncc2c1-c1cc(C(C)C)c2nc(Nc3cn(C)nc3C)ncc2c1` [III-89] had a negative logarithm of the IC50 (pIC50) of at least 7.70.
The result for `COC[C@@H](C)n1cc(Nc2ncc3cc(-c4cc(=O)[nH]cc4C)cc(C(C)C)c3n2)c(C)n1` [III-45] reads at least 7.70; that for `CCc1ncccc1-c1cc(C(C)C)c2nc(Nc3cn(CCO)nc3C)ncc2c1` [I-24], at least 7.70.
`Cc1nn(CCO)cc1Nc1ncc2cc(-c3cccc4c3OCO4)cc(C(C)C)c2n1` [I-163] showed a pIC50 of at least 7.70.
The result for `Cc1nn(CCO)cc1Nc1ncc2cc(-c3cncc(Cl)n3)cc(C(C)C)c2n1` [I-89] reads 7.00 to 7.70; that for `Cc1cnc(F)cc1-c1cc(C(C)C)c2nc(Nc3cnn(CCO)c3C)ncc2c1` [I-19], 7.00 to 7.70.
Compound `COc1nn(C2CCN(C(C)C)CC2)cc1Nc1ncc2cc(-c3cc(=O)[nH]cc3C)cc(C(C)C)c2n1` [III-32] showed a pIC50 of at least 7.70.
`Cc1c[nH]c(=O)cc1-c1cc(C(C)C)c2nc(Nc3cn(CC(=O)NC4CC4)nc3C)ncc2c1` [III-73] showed a pIC50 of 7.00 to 7.70.
The compound `Cc1c[nH]c(=O)cc1-c1cc(C2CC2)c2nc(Nc3cn(C)nc3C)ncc2c1` [III-80] had a pIC50 of at least 7.70.
Turning to `Cc1ccc2[nH]ncc2c1-c1cc(C(C)C)c2nc(Nc3cnn(CCO)c3C)ncc2c1` [I-183], the pIC50 is at least 7.70.
For `Cc1c[nH]c(=O)cc1-c1cc(C(C)C)c2nc(Nc3cn(CCO)nc3C)ncc2c1` [I-172], the pIC50 was at least 7.70.
Compound `Cc1c[nH]c(=O)cc1-c1cc(C(C)C)c2nc(Nc3cnn(C(F)F)c3C)ncc2c1` [III-8] had a pIC50 of at least 7.70.
`COc1cncc(-c2cc(C(C)C)c3nc(Nc4cn(CCO)nc4C)ncc3c2)n1` [I-91] showed a negative-log IC50 (pIC50) of 7.00 to 7.70.
As for `Cc1ncnc(C)c1-c1cc(C(C)C)c2nc(Nc3cnn(CCO)c3C)ncc2c1` [I-145], the figure is 7.00 to 7.70; as for `Cc1ccnc(C)c1-c1cc(C(C)C)c2nc(Nc3cnn(CCO)c3C)ncc2c1` [I-71], at least 7.70.
The compound `COCCn1ncc(Nc2ncc3cc(-c4cc(=O)[nH]cc4C)cc(C(C)C)c3n2)c1C` [III-43] showed a pIC50 of at least 7.70.
`Cc1c[nH]c(=O)cc1-c1cc(C(C)C)c2nc(Nc3cn(C)nc3Cl)ncc2c1` [III-5] gave a pIC50 of at least 7.70.
In turn, `Cc1c[nH]c(=O)cc1-c1cc(C(C)C)c2nc(Nc3cn([C@@H]4C[C@H]5CC[C@@H](C4)N5C)nc3C)ncc2c1` [III-25] gave a negative logarithm of the IC50 (pIC50) of 7.00 to 7.70.
The result for `Cc1nn(CCO)cc1Nc1ncc2cc(-c3cc(F)cc(F)c3)cc(C(C)C)c2n1` [I-158] reads at least 7.70; that for `Cc1c(Nc2ncc3cc(-c4cc(F)ccc4F)cc(C(C)C)c3n2)cnn1CCO` [I-169], 7.00 to 7.70.
As for `Cc1c[nH]c(=O)cc1-c1cc(C(C)C)c2nc(Nc3cnn(C4CCN(C)CC4)c3C(F)(F)F)ncc2c1` [III-28], the figure is at least 7.70.
